# Test results reported in patent US6407103B2, “Indeno [1,2-c] pyrazol-4-ones and their uses” (Bristol-Myers Squibb Pharma Company, priority 1998, dated 2002).
# Counter-ions that a name gives are not always drawn.
row,melting point,Compound
1,206 °C,"CCOC(=O)N1CCC(c2[nH]nc3c2C(=O)c2c(NC(=O)NN4CCOCC4)cccc2-3)CC1 (as salt: TFA) [Example CCLXII, 3-(1-ethoxycarbonylpiperidin-4-yl)-5-(morpholinocarbamoylamino)indeno[1,2-c]pyrazol-4-one]"
2,202 °C,"O=C(Nc1cccc2c1C(=O)c1c-2n[nH]c1C1CCN(C(=O)n2ccnc2)CC1)NN1CCOCC1 (as salt: TFA) [Example CCLXIV, 3-(1-(imidazol-1-ylcarbonyl)piperidin-4-yl)-5-(morpholinocarbamoylamino)indeno[1,2-c]pyrazol-4-one]"
3,172 °C,"CN(C)C1CCN(C(=O)N2CCC(c3[nH]nc4c3C(=O)c3c(NC(=O)NN5CCOCC5)cccc3-4)CC2)CC1 (as salt: TFA) [Example CCLXIX, 3-(1-(4-(dimethylamino)piperidinocarbonyl)piperidin-4-yl)-5-(morpholinocarbamoylamino)indeno[1,2-c]pyrazol-4-one]"
4,218 °C,"O=C(Nc1cccc2c1C(=O)c1c-2n[nH]c1C1CCN(C(=O)c2cccs2)CC1)NN1CCOCC1 (as salt: TFA) [Example CCLXV, 3-(1-(2-thienylcarbonyl)piperidin-4-yl)-5-(morpholinocarbamoylamino)indeno[1,2-c]pyrazol-4-one]"
5,258 °C,"NC(=O)N1CCC(c2[nH]nc3c2C(=O)c2c(NC(=O)NN4CCOCC4)cccc2-3)CC1 (as salt: TFA) [Example CCLXVI, 3-(1-carbamoylpiperidin-4-yl)-5-(morpholinocarbamoylamino)indeno[1,2-c]pyrazol-4-one]"
6,195 °C,"O=C(Nc1cccc2c1C(=O)c1c-2n[nH]c1C1CCN(C(=O)N2CCNCC2)CC1)NN1CCOCC1 (as salt: TFA) [Example CCLXX, 3-(1-(piperazinocarbonyl)piperidin-4-yl)-5-(morpholinocarbamoylamino)indeno[1,2-c]pyrazol-4-one]"
7,196 °C,"O=C(Nc1cccc2c1C(=O)c1c-2n[nH]c1C1CCN(C(=O)N2C[C@@H]3C[C@H]2CN3)CC1)NN1CCOCC1 (as salt: TFA) [Example CCLXXII, 3-(1-(((1S,4S)-(+)-2,5-diazabicyclo[2.2.1]hept-2-yl)carbonyl)piperidin-4-yl)-5-(morpholinocarbamoylamino)indeno[1,2-c]pyrazol-4-one]"
8,225 °C,"CN1C[C@@H]2C[C@H]1CN2C(=O)N1CCC(c2[nH]nc3c2C(=O)c2c(NC(=O)NN4CCOCC4)cccc2-3)CC1 (as salt: TFA) [Example CCLXXIII, 3-(1-(((1S,4S)-(+)-5-methyl-2,5-diazabicyclo[2.2.1]hept-2-yl)carbonyl)piperidin-4-yl)-5-(morpholinocarbamoylamino)indeno[1,2-c]pyrazol-4-one]"
9,103 °C,"NCCCCC(=O)N1CCC(c2[nH]nc3c2C(=O)c2c(NC(=O)NN4CCOCC4)cccc2-3)CC1 (as salt: TFA) [Example CCLXXVII, 3-(1-(4-aminobutylcarbonyl)piperidin-4-yl)-5-(morpholinocarbamoylamino)indeno[1,2-c]pyrazol-4-one]"
10,68 °C,"CN(C)CCCCC(=O)N1CCC(c2[nH]nc3c2C(=O)c2c(NC(=O)NN4CCOCC4)cccc2-3)CC1 (as salt: TFA) [Example CCLXXVIII, 3-(1-(4-(dimethylamino)butylcarbonyl)piperidin-4-yl)-5-(morpholinocarbamoylamino)indeno[1,2-c]pyrazol-4-one]"
11,148 °C,"CN1CCC(C(=O)N2CCC(c3[nH]nc4c3C(=O)c3c(NC(=O)NN5CCOCC5)cccc3-4)CC2)CC1 (as salt: TFA) [Example CCLXXX, 3-(1-((1-methylpiperidin-4-yl)carbonyl)piperidin-4-yl)-5-(morpholinocarbamoylamino)indeno[1,2-c]pyrazol-4-one]"
12,212 °C,"N[C@H]1CC[C@@H](C(=O)N2CCC(c3[nH]nc4c3C(=O)c3c(NC(=O)NN5CCOCC5)cccc3-4)CC2)CC1 (as salt: TFA) [Example CCLXXXII, 3-(1-(cis-4-aminocyclohexylcarbonyl)piperidin-4-yl)-5-(morpholinocarbamoylamino)indeno[1,2-c]pyrazol-4-one]"
13,202 °C,"NC1CCC(C(=O)N2CCC(c3[nH]nc4c3C(=O)c3c(NC(=O)NN5CCOCC5)cccc3-4)CC2)CC1 (stereo not shown) (as salt: TFA) [Example CCLXXXIII, 3-(1-(4-aminocyclohexylcarbonyl)piperidin-4-yl)-5-(morpholinocarbamoylamino)indeno[1,2-c]pyrazol-4-one]"

# More lines, now with the values behind:
row,Compound,melting point
1,O=C(Nc1cccc2c1C(=O)c1c-2n[nH]c1C1CCN(C(=O)Oc2ccccc2)CC1)NN1CCOCC1 (as salt: TFA),250 °C
2,O=C(Nc1cccc2c1C(=O)c1c-2n[nH]c1-c1ccc(C(=O)NC2CN3CCC2CC3)s1)NN1CCOCC1 (stereo not shown) (as salt: TFA),245 °C
3,"O=C(Nc1cccc2c1C(=O)c1c-2n[nH]c1[C@H]1CC[C@H](C(=O)O)CC1)NN1CCOCC1 (as salt: TFA) [Example CCC, 3-(trans-4-carboxylcyclohexyl)-5-(morpholinocarbamoylamino)indeno[1,2-c]pyrazol-4-one]",264 °C
4,"COC(=O)[C@H]1CC[C@H](c2[nH]nc3c2C(=O)c2c(NC(=O)NN4CCOCC4)cccc2-3)CC1 (as salt: TFA) [Example CCCI, 3-(trans-4-(methoxycarbonyl)cyclohexyl)-5-(morpholinocarbamoylamino)indeno[1,2-c]pyrazol-4-one]",259 °C
5,"CN(C)C1CCN(C(=O)[C@H]2CC[C@H](c3[nH]nc4c3C(=O)c3c(NC(=O)NN5CCOCC5)cccc3-4)CC2)C1 (stereo partly drawn) (as salt: TFA) [Example CCCII, 3-(trans-4-(3-(dimethylamino)pyrrolidinocarbonyl)cyclohexyl)-5-(morpholinocarbamoylamino)indeno[1,2-c]pyrazol-4-one]",191 °C
6,"O=C(Nc1cccc2c1C(=O)c1c-2n[nH]c1[C@H]1CC[C@H](C(=O)N2CCNCC2)CC1)NN1CCOCC1 (as salt: TFA) [Example CCCIII, 3-(trans-4-(piperazinocarbonyl)cyclohexyl)-5-(morpholinocarbamoylamino)indeno[1,2-c]pyrazol-4-one]",248 °C
7,"CN1CCN(C(=O)[C@H]2CC[C@H](c3[nH]nc4c3C(=O)c3c(NC(=O)NN5CCOCC5)cccc3-4)CC2)CC1 (as salt: TFA) [Example CCCIV, 3-(trans-4-(4-methylpiperazinocarbonyl)cyclohexyl)-5-(morpholinocarbamoylamino)indeno[1,2-c]pyrazol-4-one]",228 °C
8,"COC[C@H]1CCCN1NC(=O)Nc1cccc2c1C(=O)c1c-2n[nH]c1-c1ccc(C(=O)O)s1 (as salt: TFA) [Example CCII, 3-(5-carboxyl-2-thienyl)-5-(2(R)-(methoxymethyl)pyrrolidinocarbamoylamino)indeno[1,2-c]pyrazol-4-one]",258 °C
9,"COC[C@H]1CCCN1NC(=O)Nc1cccc2c1C(=O)c1c-2n[nH]c1-c1ccc(C(=O)N2CCN(C)CC2)s1 (as salt: TFA) [Example CCIII, 3-(5-(4-methylpiperazinocarbonyl)-2-thienyl)-5-(2(R)-(methoxymethyl)pyrrolidinocarbamoylamino)indeno[1,2-c]pyrazol-4-one]",181 °C
10,"COC[C@H]1CCCN1NC(=O)Nc1cccc2c1C(=O)c1c-2n[nH]c1-c1ccc(C(=O)N2CCNCC2)s1 (as salt: TFA) [Example CCIV, 3-(5-piperazinocarbonyl-2-thienyl)-5-(2(R)-(methoxymethyl)pyrrolidinocarbamoylamino)indeno[1,2-c]pyrazol-4-one]",> 300 °C
11,"O=C(Nc1cccc2c1C(=O)c1c-2n[nH]c1-c1ccc(N2CCC(N3CCCCC3)CC2)cc1)NN1CCOCC1 (as salt: TFA) [Example CCL, 3-(4-(4-piperidinopiperidino)phenyl)-5-(morpholinocarbamoylamino)indeno[1,2-c]pyrazol-4-one]",233 °C
12,"O=C(Nc1cccc2c1C(=O)c1c-2n[nH]c1-c1ccc(N2CCC(N3CCCC3)CC2)cc1)NN1CCOCC1 (as salt: TFA) [Example CCLI, 3-(4-(4-pyrrolidinopiperidino)phenyl)-5-(morpholinocarbamoylamino)indeno[1,2-c]pyrazol-4-one]",247 °C
13,"CCN(CC)C1CCN(c2ccc(-c3[nH]nc4c3C(=O)c3c(NC(=O)NN5CCOCC5)cccc3-4)cc2)CC1 (as salt: TFA) [Example CCLII, 3-(4-(4-(N,N-diethylamino)piperidino)phenyl)-5-(morpholinocarbamoylamino)indeno[1,2-c]pyrazol-4-one]",251 °C
14,"CC(=N)N1CCN(c2ccc(-c3[nH]nc4c3C(=O)c3c(NC(=O)NN5CCOCC5)cccc3-4)cc2)CC1 (as salt: TFA) [Example CCLIII, 3-(4-(4-(1-iminoethyl)piperazino)phenyl)-5-(morpholinocarbamoylamino)indeno[1,2-c]pyrazol-4-one]",240 °C
15,"CCc1[nH]nc2c1C(=O)c1c(NC(=O)NN3CCOCC3)cccc1-2 (as salt: TFA) [Example CCLIX, 3-ethyl-5-(morpholinocarbamoylamino)indeno[1,2-c]pyrazol-4-one]",253 °C
16,"CCc1[nH]nc2c1C(=O)c1c(NC(=O)NN3CCN(C)CC3)cccc1-2 (as salt: TFA) [Example CCLVI, 3-ethyl-5-(4-methylpiperazinocarbamoylamino)indeno[1,2-c]pyrazol-4-one]",244 °C
17,"CC(C)(C)OC(=O)N1CCN(C(=O)N2CCC(c3[nH]nc4c3C(=O)c3c(NC(=O)NN5CCOCC5)cccc3-4)CC2)CC1 (as salt: TFA) [Example CCLXXI, 3-(1-(4-(t-butoxycarbonyl)piperazinocarbonyl)piperidin-4-yl)-5-(morpholinocarbamoylamino)indeno[1,2-c]pyrazol-4-one]",231 °C
18,"CC(C)(C)OC(=O)NCCCCC(=O)N1CCC(c2[nH]nc3c2C(=O)c2c(NC(=O)NN4CCOCC4)cccc2-3)CC1 (as salt: TFA) [Example CCLXXIX, 3-(1-(4-(t-butoxycarbonylamino)butylcarbonyl)piperidin-4-yl)-5-(morpholinocarbamoylamino)indeno[1,2-c]pyrazol-4-one]",98 °C
